Measured values reported in US9359445B2, “Compositions and methods for treating neurological disorders” (The J. David Gladstone Institutes, priority 2010, dated 2016).
Entries after “also recorded” stand apart in the source; their conditions may differ.

Experiments:
PKD1 = PKD1 phosphorylation (activation) in stimulated mouse cortical neurons, western blot; format: cell-based; conditions: for PKD1 phosphorylation at activation loop (S744/8) and autophosphorylation (S916) sites after stimulation: mouse cortical cultures, substance applied alone, 10 min; for effect on glutamate-induced PKD1 phosphorylation: antagonist applied with glutamate
Venus-PKD1 = Venus-PKD1 translocation to dendritic puncta (puncta index) in transfected neurons; format: cell-based, mouse; conditions: for effect on glutamate-induced Venus-PKD1 puncta formation: drug applied with glutamate; for Venus-PKD1 translocation / puncta formation induced by the substance: substance applied alone, glutamate 30 μM, ACPD 500 μM, K+ 55 mM in the presence of APV
pH-GluR2 = experiment: pHluorin GluR2 recycling assay in mouse cortical neurons; format: cell-based
Source text: Rat GluR2 tagged with superecliptic pHluorin was cloned into pGW1 mammalian expression vector. mCherry was subcloned to replace enhanced green fluorescent protein (EGFP) in FUGW PKD1 shRNA and control vectors. mCherry served as a morphology marker to monitor the overall health of the cell. pHluorin-GluR2 and PKD1 shRNA or mutant control were transfected into mouse cortical neurons with Lipofectamine 2000 (Invitrogen). At 12 DIV, neurons were imaged on a Zeiss LSM 510 confocal microscope with a 40× water immersion lens in HBS as described above, only nimodipine was excluded. After 20 min of baseline imaging, 30 μM glutamate and 10 μM glycine were washed on to cells by gravity flow perfusion for 5 min, followed by washout with control HBS solution. Images were collected every 5 min. Average pixel intensity of pH-GluR2 in the cell body was calculated in MetaMorph, and background was measured in a cell-free region of the image and subtracted from fluorescence intensities before further calculations. Fractional change in fluorescent intensity (ΔF/F0) was calculated as Ft−F0/F0, where Ft is pHGluR2 intensity at time t and F0 is the average pH-GluR2 fluorescence intensity at four points before glutamate application.

Q: Which “PKD1 phosphorylation at activation loop (S744/8) and autophosphorylation (S916) sites after stimulation” value (shortened to “PKD1 phosphorylation at activation loop”) (PKD1; glutamate 30 μM) does the source give for N[C@H](C(=O)O)c1cc(O)cc(O)c1 [DHPG, (S)-3,5-dihydroxyphenylglycine] here?
A: induced phosphorylation

Q: Which “effect on glutamate-induced Venus-PKD1 puncta formation” value (Venus-PKD1) does the source give for Cn1c2ccccc2c2c3c(c4c5ccccc5n(CCC#N)c4c21)CNC3=O [Gö6976] here?
A: had no effect

Q: CN[C@H](CC(=O)O)C(=O)O [NMDA, N-methyl-D-aspartate] was tested. Which “PKD1 phosphorylation at activation loop” value (PKD1; glutamate 30 μM) did it give?
A: did not stimulate autophosphorylation

Q: And the “Venus-PKD1 translocation / puncta formation induced by the substance” value (Venus-PKD1)?
A: puncta formation was induced

Q: Which “duration of glutamate-induced PKD1 phosphorylation” value (PKD1; glutamate 30 μM, time of stimulation) does the source give for glutamate here?
A: up to 60 min

Q: And the “PKD1 phosphorylation at activation loop” value (PKD1; glutamate 30 μM)?
A: rapidly and robustly phosphorylated

Q: What about the pH-GluR2 fluorescence intensity (pH-GluR2; after 5 minutes of glutamate application) of the same molecule?
A: ~80 % of baseline

Q: What about the pH-GluR2 fluorescence recovery (pH-GluR2; fifty-five minutes after glutamate stimulation, neurons with endogenous PKD1) of the same molecule?
A: > 90 % of baseline

Q: What about the “pH-GluR2 fluorescence intensity at maximal endocytosis” value (pH-GluR2; immediately after glutamate stimulation) of the same molecule?
A: 20 % of baseline

Q: What about the “Venus-PKD1 translocation / puncta formation induced by the substance” value (Venus-PKD1) of the same molecule?
A: translocated to discrete puncta throughout the dendrites

Q: How did the “effect on glutamate-induced PKD1 phosphorylation” value (PKD1) turn out when NC(CCCP(=O)(O)O)C(=O)O (racemic) [APV, D,L-2-amino-5-phosphonovaleric acid] was run?
A: did not block phosphorylation

Q: And the “effect on glutamate-induced Venus-PKD1 puncta formation” value (Venus-PKD1)?
A: blocked

Q: For CN(C)CCCn1cc(C2=C(c3c[nH]c4ccccc34)C(=O)NC2=O)c2ccccc21 [GF109203X], which “effect on glutamate-induced Venus-PKD1 puncta formation” value (Venus-PKD1) is on record?
A: had no effect

Q: And the “effect on glutamate-induced Venus-PKD1 puncta formation” value (Venus-PKD1; listed as GF 109203×)?
A: did not prevent PKD1 translocation

Q: What does the source list for CC(N)(C(=O)O)c1ccc(C(=O)O)cc1 (stereo not drawn) [MCPG, alpha-methyl-4-carboxyphenylglycine]?
A: effect on glutamate-induced PKD1 phosphorylation (PKD1): reduced glutamate-induced PKD1 phosphorylation; effect on glutamate-induced Venus-PKD1 puncta formation (Venus-PKD1): unaffected

Q: How did the “effect on glutamate-induced Venus-PKD1 puncta formation” value (Venus-PKD1) turn out when COc1ccc2c(c1)CC[C@@H]1[C@@H]2CC[C@]2(C)[C@@H](NCCCCCCN3C(=O)C=CC3=O)CC[C@@H]12 [U73122] was run?
A: blocked glutamate-induced puncta formation; also recorded: blocks puncta formation

Q: For N[C@@]1(C(=O)O)CC[C@@H](C(=O)O)C1 [ACPD, (1S,3R)-1-aminocyclopentane-1,3-dicarboxylic acid], which “PKD1 phosphorylation at activation loop” value (PKD1; glutamate 30 μM) is on record?
A: induced phosphorylation

Q: And the “Venus-PKD1 translocation / puncta formation induced by the substance” value (Venus-PKD1)?
A: did not induce translocation

Q: How did the “effect on glutamate-induced Venus-PKD1 puncta formation” value (Venus-PKD1) turn out when COc1ccc2c(c1)c(C1=C(c3c[nH]c4ccccc34)C(=O)NC1=O)cn2CCCN(C)C [Gö6983] was run?
A: did not prevent PKD1 translocation; also recorded: had no effect

B1: BDNF: brain-derived neurotophic factor, activates TrkB receptors (protein, UniProt P23560 19-247, looked up)
Neurotrophic factor BDNF …: APMKEANIRGQGGLAYPGVRTHGTLESVNGPKAGSRGLTSLADTFEHVIEELLDEDQKVRPNEENNKDADLYTSRVMLSSQVPLEPPLLFLLEEYKNYLDAANMSMRVRRHSDPARRGELSVCDSISEWVTAADKKTAVDMSGGTVTVLEKVPVSKGQLKQYFYETKCNPMGYTKEGCRGIDKRHWNSQCRTTQSYVRALTMDSKKRIGWRFIRIDTSCVCTLTIKRGR
Q: B1 was tested. Which “PKD1 phosphorylation at activation loop” value (PKD1; glutamate 30 μM) did it give?
A: did not activate PKD1
